Test results published in ChEMBL document CHEMBL1201862, “PubChem BioAssay data set” (2004).
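All cell lines were grown in 96-well plates and treated with compound for 48 hours. GI50: concentration for 50% inhibition of growth.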 Active and inactive are the calls of the source. No stated cut-off is given here; in the data, active = GI50 up to about 1.1 µM and inactive = higher.

Tests used:
Experiment in all cases: NCI anticancer screen, dose series, 48 h
SR = tested on: SR
UACC-62 = tested on: UACC-62
U-251 = tested on: U-251
OVCAR-5 = tested on: OVCAR-5
ACHN = tested on: ACHN
HL-60 = tested on: HL-60
HCT-15 = tested on: HCT-15
SF-295 = tested on: SF-295
RXF 631 = tested on: RXF 631
A549 = tested on: A549
SN12C = tested on: SN12C
TK-10 = tested on: TK-10
A498 = tested on: A498
CCRF-CEM = tested on: CCRF-CEM
LXFL 529 = tested on: LXFL 529
M19-MEL = tested on: M19-MEL
DLD-1 = tested on: DLD-1
OVCAR-3 = tested on: OVCAR-3
NCI-H23 = tested on: NCI-H23
SNB-19 = tested on: SNB-19
786-0 = tested on: 786-0
OVCAR-8 = tested on: OVCAR-8
SK-MEL-28 = tested on: SK-MEL-28
XF498 = tested on: XF498
HOP-18 = tested on: HOP-18
COLO 205 = tested on: COLO 205
SF-268 = tested on: SF-268
HT-29 = tested on: HT-29
UO-31 = tested on: UO-31
KM-20L2 = tested on: KM-20L2
SK-OV-3 = tested on: SK-OV-3
DMS-114 = tested on: DMS-114
Malme-3M = tested on: Malme-3M
HOP-62 = tested on: HOP-62
HCT-116 = tested on: HCT-116
NCI-H460 = tested on: NCI-H460
NCI-H522 = tested on: NCI-H522
K562 = tested on: K562
M14 = tested on: M14
OVCAR-4 = tested on: OVCAR-4
NCI-H226 = tested on: NCI-H226
IGROV-1 = tested on: IGROV-1
CAKI-1 = tested on: CAKI-1
SNB-78 = tested on: SNB-78
EKVX = tested on: EKVX
HCC 2998 = tested on: HCC 2998
MOLT-4 = tested on: MOLT-4
SNB-75 = tested on: SNB-75
SK-MEL-2 = tested on: SK-MEL-2
KM12 = tested on: KM12
DMS-273 = tested on: DMS-273
SW-620 = tested on: SW-620
UACC-257 = tested on: UACC-257
SK-MEL-5 = tested on: SK-MEL-5
LOX IMVI = tested on: LOX IMVI
RXF 393 = tested on: RXF 393
SF-539 = tested on: SF-539
RPMI-8226 = tested on: RPMI-8226
HOP-92 = tested on: HOP-92

With `CCc1cccc(C(C)C)c1NC(=O)/C(=N\NC(N)=O)C(C(=O)OC)c1cnc2ccccc2n1` (centres undefined) the GI50 (SR) was 46.5 µM (inactive), the GI50 (UACC-62) was 26 µM (inactive) and the GI50 (U-251) was 40.2 µM (inactive). For the same molecule, the GI50 (OVCAR-5) was > 100 µM (inactive), the GI50 (ACHN) was 62.7 µM (inactive) and the GI50 (HL-60) was 31.8 µM (inactive). For the same molecule, the GI50 (HCT-15) was 39.2 µM, the GI50 (SF-295) was 58.5 µM (inactive) and the GI50 (RXF 631) was 55.2 µM (inactive). The GI50 (A549) was 24.8 µM (inactive), the GI50 (SN12C) was 35 µM (inactive) and the GI50 (TK-10) was > 100 µM (inactive). The GI50 (A498) was > 100 µM (inactive), the GI50 (CCRF-CEM) was 39 µM (inactive) and the GI50 (LXFL 529) was 52.4 µM (inactive). For the same molecule, the GI50 (M19-MEL) was 15.9 µM (inactive), the GI50 (DLD-1) was 79.6 µM (inactive) and the GI50 (OVCAR-3) was 20.8 µM (inactive). For the same molecule, the GI50 (NCI-H23) was 24.8 µM (inactive), the GI50 (SNB-19) was 51.3 µM (inactive) and the GI50 (786-0) was 60.8 µM (inactive). For the same molecule, the GI50 (OVCAR-8) was 54.1 µM (inactive), the GI50 (SK-MEL-28) was 55.8 µM (inactive) and the GI50 (XF498) was > 100 µM (inactive). For the same molecule, the GI50 (HOP-18) was 19.1 µM (inactive), the GI50 (COLO 205) was 20.9 µM (inactive) and the GI50 (SF-268) was > 100 µM (inactive). For the same molecule, the GI50 (HT-29) was 35.8 µM (inactive), the GI50 (UO-31) was > 100 µM (inactive) and the GI50 (KM-20L2) was 41.6 µM (inactive). For the same molecule, the GI50 (SK-OV-3) was > 100 µM (inactive), the GI50 (DMS-114) was 24.9 µM (inactive) and the GI50 (Malme-3M) was 34.4 µM (inactive). The GI50 (HOP-62) was 40.6 µM (inactive), the GI50 (HCT-116) was 24.2 µM (inactive) and the GI50 (NCI-H460) was 31.6 µM (inactive). For the same molecule, the GI50 (NCI-H522) was 24.9 µM (inactive), the GI50 (K562) was 37.2 µM (inactive) and the GI50 (M14) was 39.6 µM (inactive). The GI50 (OVCAR-4) was 87.7 µM (inactive), the GI50 (NCI-H226) was 50.5 µM (inactive) and the GI50 (IGROV-1) was 40.7 µM (inactive). The GI50 (CAKI-1) was > 100 µM (inactive), the GI50 (SNB-78) was > 100 µM (inactive) and the GI50 (EKVX) was > 100 µM (inactive). For the same molecule, the GI50 (HCC 2998) was 40.6 µM (inactive), the GI50 (MOLT-4) was 32.9 µM (inactive) and the GI50 (SNB-75) was 47.4 µM (inactive). For the same molecule, the GI50 (SK-MEL-2) was 53.3 µM (inactive), the GI50 (KM12) was 41.6 µM (inactive) and the GI50 (DMS-273) was 31.6 µM (inactive). For the same molecule, the GI50 (SW-620) was 39.5 µM (inactive), the GI50 (UACC-257) was 32.1 µM (inactive) and the GI50 (SK-MEL-5) was 18.7 µM (inactive). For the same molecule, the GI50 (LOX IMVI) was 34.8 µM (inactive), the GI50 (RXF 393) was 50 µM (inactive) and the GI50 (SF-539) was 52.7 µM (inactive).
`CCOC(=O)/C=C1/C(CCCOCc2ccccc2)C2CCCC23CC2(CCN13)OCCO2` (centres undefined) was tested, and the GI50 (UACC-62) was 15.2 µM (inactive), the GI50 (U-251) was 20.1 µM (inactive) and the GI50 (OVCAR-5) was 44 µM (inactive). The GI50 (ACHN) was 22.3 µM (inactive), the GI50 (HL-60) was 10.2 µM (inactive) and the GI50 (HCT-15) was 20.4 µM. For the same molecule, the GI50 (SF-295) was 23.6 µM (inactive), the GI50 (RXF 631) was 30.1 µM (inactive) and the GI50 (A549) was 18.9 µM (inactive). The GI50 (SN12C) was 25.5 µM (inactive), the GI50 (RPMI-8226) was 6.24 µM (inactive) and the GI50 (TK-10) was 36.2 µM (inactive). The GI50 (A498) was 19.9 µM (inactive), the GI50 (CCRF-CEM) was 19.5 µM (inactive) and the GI50 (LXFL 529) was 22.2 µM (inactive). The GI50 (M19-MEL) was 19.6 µM (inactive), the GI50 (DLD-1) was 19 µM (inactive) and the GI50 (OVCAR-3) was 18.3 µM (inactive). For the same molecule, the GI50 (NCI-H23) was 12.5 µM (inactive), the GI50 (SNB-19) was 33.3 µM (inactive) and the GI50 (OVCAR-8) was 24.8 µM (inactive). For the same molecule, the GI50 (SK-MEL-28) was 18.4 µM (inactive), the GI50 (XF498) was 12.3 µM (inactive) and the GI50 (HOP-18) was 21.3 µM (inactive). The GI50 (COLO 205) was 19.1 µM (inactive), the GI50 (SF-268) was 42 µM (inactive) and the GI50 (HT-29) was 16.9 µM (inactive). The GI50 (UO-31) was 17.2 µM (inactive), the GI50 (KM-20L2) was 22.3 µM (inactive) and the GI50 (SK-OV-3) was 43 µM (inactive). For the same molecule, the GI50 (DMS-114) was 13.9 µM (inactive), the GI50 (Malme-3M) was 16.1 µM (inactive) and the GI50 (NCI-H460) was 18.7 µM (inactive). For the same molecule, the GI50 (NCI-H522) was 6.82 µM (inactive), the GI50 (K562) was 13.5 µM (inactive) and the GI50 (OVCAR-4) was 24.3 µM (inactive). For the same molecule, the GI50 (NCI-H226) was 22.6 µM (inactive), the GI50 (IGROV-1) was 24.7 µM (inactive) and the GI50 (SNB-78) was 25.9 µM (inactive). The GI50 (EKVX) was 34.8 µM (inactive), the GI50 (HCC 2998) was 25.8 µM (inactive) and the GI50 (MOLT-4) was 11.4 µM (inactive). For the same molecule, the GI50 (SNB-75) was 2.99 µM (inactive), the GI50 (SK-MEL-2) was 17 µM (inactive) and the GI50 (KM12) was 22.3 µM (inactive). For the same molecule, the GI50 (DMS-273) was 16.8 µM (inactive), the GI50 (SW-620) was 33.9 µM (inactive) and the GI50 (UACC-257) was 19.5 µM (inactive). The GI50 (SK-MEL-5) was 15.7 µM (inactive), the GI50 (LOX IMVI) was 18.1 µM (inactive) and the GI50 (RXF 393) was 6.32 µM (inactive).
In the case of `O=C(Nc1nnc(S)[nH]1)C(=O)C(C(=O)c1ccc2ccccc2c1)C1OC(=O)c2ccccc21` (centres undefined), the GI50 (UACC-62) is reported as 15.6 µM (inactive), the GI50 (U-251) is reported as 8.15 µM (inactive) and the GI50 (OVCAR-5) is reported as 44.3 µM (inactive). The GI50 (ACHN) was > 100 µM (inactive), the GI50 (HCT-15) was 27.9 µM and the GI50 (RXF 631) was 21.8 µM (inactive). The GI50 (A549) was 37.5 µM (inactive), the GI50 (SN12C) was 18.2 µM (inactive) and the GI50 (RPMI-8226) was 7.69 µM (inactive). The GI50 (TK-10) was 21.6 µM (inactive), the GI50 (A498) was > 100 µM (inactive) and the GI50 (CCRF-CEM) was 15.5 µM (inactive). The GI50 (LXFL 529) was 12.1 µM (inactive), the GI50 (M19-MEL) was 13.8 µM (inactive) and the GI50 (DLD-1) was 19.5 µM (inactive). For the same molecule, the GI50 (OVCAR-3) was 15.5 µM (inactive), the GI50 (NCI-H23) was 17.1 µM (inactive) and the GI50 (SNB-19) was 7.64 µM (inactive). For the same molecule, the GI50 (786-0) was 14.9 µM (inactive), the GI50 (OVCAR-8) was 11.9 µM (inactive) and the GI50 (SK-MEL-28) was 14.8 µM (inactive). For the same molecule, the GI50 (XF498) was 2.09 µM (inactive), the GI50 (HOP-92) was 25.8 µM (inactive) and the GI50 (HOP-18) was 0.305 µM (active). For the same molecule, the GI50 (COLO 205) was 15.9 µM (inactive), the GI50 (SF-268) was 16.6 µM (inactive) and the GI50 (HT-29) was 35 µM (inactive). The GI50 (UO-31) was 15.7 µM (inactive), the GI50 (KM-20L2) was 35.3 µM (inactive) and the GI50 (SK-OV-3) was 23.4 µM (inactive). For the same molecule, the GI50 (DMS-114) was 12.2 µM (inactive), the GI50 (Malme-3M) was 31 µM (inactive) and the GI50 (HOP-62) was 14.7 µM (inactive). For the same molecule, the GI50 (HCT-116) was 13.7 µM (inactive), the GI50 (NCI-H460) was > 100 µM (inactive) and the GI50 (NCI-H522) was 17.6 µM (inactive). The GI50 (K562) was 21 µM (inactive), the GI50 (M14) was 19.1 µM (inactive) and the GI50 (OVCAR-4) was 16.2 µM (inactive). The GI50 (NCI-H226) was 4.85 µM (inactive), the GI50 (IGROV-1) was 20.4 µM (inactive) and the GI50 (CAKI-1) was 30.3 µM (inactive). The GI50 (SNB-78) was 29.8 µM (inactive), the GI50 (EKVX) was 39.7 µM (inactive) and the GI50 (HCC 2998) was 11.5 µM (inactive). The GI50 (MOLT-4) was 3.78 µM (inactive), the GI50 (SNB-75) was 13.8 µM (inactive) and the GI50 (SK-MEL-2) was 23 µM (inactive). For the same molecule, the GI50 (KM12) was 26.8 µM (inactive), the GI50 (DMS-273) was 25.5 µM (inactive) and the GI50 (SW-620) was 28.9 µM (inactive). The GI50 (UACC-257) was 19.7 µM (inactive), the GI50 (SK-MEL-5) was 18.1 µM (inactive) and the GI50 (LOX IMVI) was 17.8 µM (inactive). The GI50 (RXF 393) was 10.6 µM (inactive) and the GI50 (SF-539) was 5.56 µM (inactive).
